Where two headings read alike, the source gives them in different places.
How the values were obtained:
[1] = system: Leishmania infantum (MHOM/MA/67/ITMAP-263) intracellular amastigotes in THP-1; experiment: microbe, parasite or virus in culture
in vitro [2] = settings: human, microsomes
in vitro [3] = settings: human; for IC50 at 120 h: PMA-differentiated THP-1 cells; for CC50 at 120 h: THP-1 cells differentiated with PMA
[4] = system: Leishmania infantum MHOM/MA(BE)/67/ITMAP263 intracellular amastigotes; experiment: microbe, parasite or virus in culture; settings: Macrophage, in Mus musculus
physchem = settings: HPLC, Ascentis Express RP Amide column
[5] = system: primary peritoneal mouse macrophages (PMM); experiment: cells; settings: Macrophage
in vitro [6] = settings: mouse, microsomes; for microsomal CLint at 0.5 h, 0.5 µM: intrinsic in vitro clearance, liver microsomes; for microsomal CLint at 0.5 μM: mouse liver microsomes
[7] = system: Leishmania infantum MHOM/MA(BE)/67/ITMAP263 intracellular amastigotes; settings: for potency against L. inf. in words: intracellular amastigotes in PMM
[8] = system: primary peritoneal mouse macrophages (PMM); settings: PMM IC50 / L. infantum IC50
in vitro [9] = settings: human
in vitro [10] = settings: Swiss, mouse
[11] = system: Trypanosoma cruzi, Tulahuen CL2, beta-galactosidase strain; experiment: microbe, parasite or virus in culture
in vitro [12] = settings: PAMPA
in vitro [13] = settings: human, HFF-1 cells
in vitro [14] = settings: human, HepG2 cells
[15] = THP-1, 120 h, read-out: Intracellular activity pIC50 L. inf. in THP-1 (converted)
[16] = pH 7.4, Microsome Clint Human, intrinsic in vitro clearance, liver microsomes
[17] = read-out: L. inf. pIC50, intracellular amastigotes in PMM (converted), geometric mean of a minimum of two experiments ± standard error
[18] = pH 7.4, elog D, HPLC measured log D, pH 7.4
[19] = read-out: PMM pIC50 (converted)
[20] = pH 7.4, Microsome Clint,u Human, Table 2, intrinsic in vitro clearance, liver microsomes
[21] = pH 7.4, Microsome Clint,u Mouse, Table 2
[22] = pH 7.4, HLM CLint, human liver microsomes
[23] = read-out: L. Inf. pIC50, from L. infantum intracellular amastigote IC50 (converted)
[24] = read-out: L. infantum MHOM/MA(BE)/67/ITMAP263 intracellular amastigotes IC50
[25] = MRC5, read-out: T. cruzi Tulahuen C4 (LacZ) IC50
[26] = THP-1, read-out: L. infantum MHOM/MA/67/ITMAP263 intracellular amastigotes THP-1 cells IC50 (uM)
[27] = pH 7.4, HLM CLint (uL/min/mg), human liver microsomes
[28] = read-out: L. infantum MHOM/MA(BE)/67/ITMAP263 intracellular amastigotes IC50 (uM), intracellular amastigotes
[29] = MRC5, read-out: T. cruzi Tulahuen C4 (LacZ) IC50 (uM)
[30] = reference drug in the intracellular Leishmania amastigote assay

SMILES | IC50 [1, 15] [µM] | SI (vs PMM) [8] | microsomal CLint at 0.5 μM (in vitro [2]; [22]) [µL/min/mg] | microsomal CLint at 0.5 μM (in vitro [6]; pH 7.4, MLM CLint) [µL/min/mg] | CC50 at 3 days (in vitro [9]) [µM] | IC50 (in vitro [10]) [µM] | IC50 [4, 23] [µM] | IC50 [4, 24] [µM] | chromatographic logD (physchem; pH 7.4, eLogD) | IC50 [11, 25] [µM] | also measured
C[C@@H]1[C@H](O)[C@@H](C)/C=C/C=C/C=C/C=C/C=C/C=C/C=C/[C@H](O[C@@H]2O[C@H](C)[C@@H](O)[C@H](N)[C@@H]2O)C[C@@H]2O[C@](O)(C[C@@H](O)C[C@@H](O)[C@H](O)CC[C@@H](O)C[C@@H](O)CC(=O)O[C@H]1C)C[C@H](O)[C@H]2C(=O)O [Amphotericin B, reference compound] | 1.95 | – | – | – | – | – | – | – | – | – | –
COc1ccc(S(C)(=O)=O)cc1S(=O)(=O)N(Cc1ccc(F)cc1)Cc1ccc(F)cc1 [Compound 26] | 5.89 | – | – | – | – | – | – | – | – | – | microsomal CLint at 0.5 μM (in vitro [2]; [16]): 296 µL/min/mg; IC50 at 120 h (in vitro [3]): > 64.6 µM; IC50 [4, 17]: 1.29 µM; chromatographic logD (physchem; [18]): 3.9; IC50 [5, 19]: > 64.6 µM
COCCOCN1CNc2cc(OC)c(S(=O)(=O)N(Cc3ccccc3)Cc3ccccc3)cc2S1(=O)=O [Compound 29] | 14.8 | – | – | – | – | – | – | – | – | – | microsomal CLint at 0.5 h, 0.5 µM (in vitro [2]; [16]): 518 µL/min/mg; microsomal CLint at 0.5 h, 0.5 µM (in vitro [6]; pH 7.4, Microsome Clint Mouse): 1370 µL/min/mg; IC50 at 120 h (in vitro [3]): 39.8 µM; potency against L. inf. in words [7]: sub-micromolar potency; IC50 [4, 17]: 0.661 µM; chromatographic logD (physchem; [18]): 4; IC50 [5, 19]: > 64.6 µM
COc1ccc(C(=O)N2CCOCC2)cc1S(=O)(=O)N(Cc1ccccc1)CC(C)(C)C [Compound 45] | 27.5 | – | – | – | – | – | – | – | – | – | microsomal CLint at 0.5 h, 0.5 µM (in vitro [2]; [20]): 1600 µL/min/mg; microsomal CLint at 0.5 h, 0.5 µM (in vitro [6]; [21]): 2580 µL/min/mg; IC50 at 120 h (in vitro [3]): > 64.6 µM; IC50 [4, 17]: 1 µM; chromatographic logD (physchem; [18]): 3.8; IC50 [5, 19]: > 64.6 µM
COc1ccc(C(=O)N2CCOCC2)cc1S(=O)(=O)N(Cc1ccc(C(F)(F)F)nc1)CC(C)(C)C [Compound 48] | > 64.6 | – | – | – | – | – | – | – | – | – | microsomal CLint at 0.5 h, 0.5 µM (in vitro [2]; [20]): 143 µL/min/mg; microsomal CLint at 0.5 h, 0.5 µM (in vitro [6]; [21]): 379 µL/min/mg; IC50 at 120 h (in vitro [3]): > 64.6 µM; potency against L. inf. in words [7]: inactive; IC50 [4, 17]: 45.7 µM; IC50 [5, 19]: > 64.6 µM
COc1ccc(C#N)cc1S(=O)(=O)N(Cc1ccccc1)Cc1cnc(C(F)(F)F)nc1 [Compound 49] | 61.7 | – | – | – | – | – | – | – | – | – | microsomal CLint at 0.5 μM (in vitro [2]; [20]): 100 µL/min/mg; IC50 at 120 h (in vitro [3]): > 64.6 µM; IC50 [4, 17]: 3.89 µM; chromatographic logD (physchem; [18]): 3.8; IC50 [5, 19]: > 64.6 µM
CCN(Cc1ccccc1)S(=O)(=O)c1cc(F)ccc1F [DNDI0003364474] | – | 2 | 205 | 705 | 45.2 | > 64 | 33.9 | 33.9 | 4.2 | 30.1 | –
CCN(Cc1ccccc1)S(=O)(=O)c1ccccc1Br [DNDI0003365405] | – | 2 | 88 | 235 | > 64 | > 64 | 33.9 | 33.9 | 4.2 | 13.8 | –
O=S(=O)(c1ccccc1OC(F)(F)F)N(Cc1ccccc1)Cc1ccccc1 [DNDI0003366074] | – | 30 | 93 | 689 | > 64 | 32 | 1.07 | 1.08 | – | 6.3 | –
COc1ccc(Cl)cc1S(=O)(=O)N(CCN(C)C)Cc1ccccc1 [DNDI0003366090] | – | 7 | 1190 | 120 | 26.7 | 45.2 | 6.17 | 6.14 | 4 | 32.7 | –
CC(=O)Nc1ccc(S(=O)(=O)N(CCN(C)C)Cc2ccccc2)cc1 [DNDI0003366091] | – | 1 | 95 | 42 | > 64 | > 64 | > 64 | > 64 | 3 | > 64 | –
COc1ccc(OC)c(S(=O)(=O)N(Cc2ccccc2)C2CCNCC2)c1 [DNDI0003366094] | – | 2 | 100 | 23 | 42.2 | 45.2 | 27.5 | 27.8 | 3.1 | 28.9 | –
CCN(Cc1ccccn1)S(=O)(=O)c1cc(OC)ccc1OC [DNDI0003366095] | – | 1 | 118 | 2190 | > 64 | > 64 | 43.7 | 44.1 | 2.7 | > 64 | –
COCCN(Cc1ccccc1)S(=O)(=O)c1ccc(NC(C)=O)cc1 [DNDI0003366100] | – | 1 | 424 | 29 | > 64 | > 64 | > 64 | > 64 | 3.2 | > 64 | –
COCCN(C(C)=O)c1ccc(S(=O)(=O)N(CCOC)Cc2ccccc2)cc1 [DNDI0003366101] | – | 1 | 73 | 227 | > 64 | > 64 | > 64 | > 64 | 3.1 | > 64 | –
Nc1cc(Cl)c(S(N)(=O)=O)cc1S(=O)(=O)N(Cc1ccccc1)Cc1ccccc1 [DNDI0003392145] | – | – | – | – | 43.4 | – | 35.5 | – | – | – | IC50 [1, 26]: 31.2 µM; microsomal CLint at 0.5 μM (in vitro [2]; [27]): 253 µL/min/mg; Papp (in vitro [12]): 3.37 ×10⁻⁶ cm/s; CC50 at 120 h (in vitro [3]): 60.6 µM; CC50 (in vitro [13]): > 64 µM; IC50 [4, 28]: 35.3 µM; chromatographic logD (physchem; pH 7.4, eLogD, experimental): 3.4; IC50 ([5]; read-out: PMM IC50 (uM)): 50.8 µM; IC50 [11, 29]: 17.7 µM; CC50 (in vitro [14]): > 64 µM
COc1ccc(C(=O)N2CCOCC2)cc1S(=O)(=O)N(Cc1ccccc1)CC(C)(C)C [DNDI0003407876] | – | – | – | – | > 64 | – | 1 | – | – | – | IC50 [1, 26]: 27.5 µM; microsomal CLint at 0.5 μM (in vitro [2]; [27]): 1140 µL/min/mg; microsomal CLint at 0.5 μM (in vitro [6]; pH 7.4, MLM CLint (uL/min/mg)): 858 µL/min/mg; Papp (in vitro [12]): 21.7 ×10⁻⁶ cm/s; CC50 at 120 h (in vitro [3]): > 64 µM; CC50 (in vitro [13]): > 64 µM; IC50 [4, 28]: 1 µM; IC50 ([5]; read-out: PMM IC50 (uM)): > 64 µM; IC50 [11, 29]: 16.7 µM; CC50 (in vitro [14]): > 64 µM
COc1ccc(C(=O)N2CCOCC2)cc1S(=O)(=O)N(Cc1ccc(C(F)(F)F)nc1)CC(C)(C)C [DNDI0003407906] | – | – | – | – | > 64 | – | 45.7 | – | – | – | IC50 [1, 26]: > 64 µM; microsomal CLint at 0.5 μM (in vitro [2]; [27]): 127 µL/min/mg; microsomal CLint at 0.5 μM (in vitro [6]; pH 7.4, MLM CLint (uL/min/mg)): 262 µL/min/mg; Papp (in vitro [12]): 15.7 ×10⁻⁶ cm/s; CC50 at 120 h (in vitro [3]): > 64 µM; CC50 (in vitro [13]): > 64 µM; IC50 [4, 28]: 45.2 µM; IC50 ([5]; read-out: PMM IC50 (uM)): > 64 µM; IC50 [11, 29]: 35.6 µM; CC50 (in vitro [14]): > 64 µM
O=S1(=O)NCNc2cc(Cl)c(S(=O)(=O)N(Cc3ccccc3)Cc3ccccc3)cc21 [DNDI0003425512] | – | – | – | – | 25 | – | 1.29 | – | – | – | IC50 [1, 26]: 24.9 µM; microsomal CLint at 0.5 μM (in vitro [2]; [27]): 63 µL/min/mg; Papp (in vitro [12]): 0.04 ×10⁻⁶ cm/s; CC50 at 120 h (in vitro [3]): 52.4 µM; CC50 (in vitro [13]): 29.5 µM; IC50 [4, 28]: 1.28 µM; chromatographic logD (physchem; pH 7.4, eLogD, experimental): 4.2; IC50 ([5]; read-out: PMM IC50 (uM)): 32 µM; IC50 [11, 29]: 9.14 µM; CC50 (in vitro [14]): > 64 µM
COCCOCN(Cc1ccccc1)S(=O)(=O)c1cc(OC)ccc1OC [DNDI0003425514] | – | – | – | – | > 64 | – | 6.17 | – | – | – | IC50 [1, 26]: > 64 µM; Papp (in vitro [12]): 12.8 ×10⁻⁶ cm/s; CC50 at 120 h (in vitro [3]): > 64 µM; CC50 (in vitro [13]): > 64 µM; IC50 [4, 28]: 6.11 µM; chromatographic logD (physchem; pH 7.4, eLogD, experimental): 3.4; IC50 ([5]; read-out: PMM IC50 (uM)): > 64 µM; IC50 [11, 29]: > 64 µM; CC50 (in vitro [14]): > 64 µM
CCCCCCCCCCCCCCCCOP(=O)([O-])OCC[N+](C)(C)C [Miltefosine, reference compound] | 1.95 | – | – | – | – | – | – | – | – | – | IC50 [7, 30]: ~5 µM; IC50 [4, 17]: 8.71 µM; IC50 [4, 30]: 5 to 10 µM

— PMC8126888 (RSC Medicinal Chemistry, 2020)
